Results taken from ChEMBL document CHEMBL3045316, “Synthesis and analgesic activity of new heterocyclic compounds derived from monoterpenoids” (Med Chem Res, 2013).

How the values were obtained:
Mus musculus [1] = assay: Analgesic activity in albino Mus musculus (mouse) assessed as protection against thermal stimulus-induced paw licking and jumping behaviour at 10 mg/kg, po measured after 1 hr by hot plate assay; format: functional
Mus musculus [2] = assay: Analgesic activity in albino Mus musculus (mouse) assessed as inhibition of acetic acid-induced abdominal writhings at 10 mg/kg, po administered 1 hr before acetic acid injection measured for 5 to 8 min; format: functional; details: Abdomen
Mus musculus [3] = assay: Analgesic activity in albino Mus musculus (mouse) assessed as proportion of animals without pain behaviour symptoms at 10 mg/kg, po administered 1 hr before acetic acid injection measured for 5 to 8 min; format: functional
Mus musculus [4] = assay: Selectivity index, ratio of LD50 for albino Mus musculus (mouse) to ED50 for albino Mus musculus (mouse) by hot-plate test
Mus musculus [5] = assay: Selectivity index, ratio of LD50 for albino Mus musculus (mouse) to ED50 for albino Mus musculus (mouse) by acetic acid-induced writhing test
[6] = Acute toxicity in albino Mus musculus (mouse) assessed as mortality administered intragastrically by kreber method; format: organism-based; details: in vivo, po
Mus musculus [7] = assay: Analgesic activity in po dosed albino Mus musculus (mouse) assessed as protection against thermal stimulus-induced paw licking and jumping behaviour measured after 1 hr by hot plate assay; format: functional
Mus musculus [8] = assay: Analgesic activity in po dosed albino Mus musculus (mouse) assessed as inhibition of acetic acid-induced abdominal writhings administered 1 hr before acetic acid injection measured for 5 to 8 min; format: functional; details: Abdomen

## COc1cc([C@@H]2CC(C)(C)[C@@H]3CC=C(C)[C@@H](O)[C@@H]3O2)cc(OC)c1OC
Mus musculus [1]
  Activity: 16%
Mus musculus [2]
  inhibition in vivo at 10 mg/kg: 13%

## COc1cc([C@H]2O[C@@]3(C)C[C@H](c4cc(OC)c(OC)c(OC)c4)O[C@H]4C(=O)[C@H](C)[C@H]2C[C@H]43)cc(OC)c1OC
Mus musculus [1]
  Activity: 19%
Mus musculus [3]
  Activity: 25%
Mus musculus [2]
  inhibition in vivo at 10 mg/kg: 50%

## COc1ccc([C@H]2O[C@@]3(C)C[C@H](c4ccc(OC)c(OC)c4OC)O[C@H]4C(=O)[C@H](C)[C@H]2C[C@H]43)c(OC)c1OC
Mus musculus [1]
  Activity: 9%
Mus musculus [2]
  inhibition in vivo at 10 mg/kg: 23%

## COc1cc([C@@H]2C[C@@]3(C)O[C@H]4C(C)=CC[C@@H]3[C@H]4O2)cc(OC)c1OC
Mus musculus [4]
  Ratio LD50/ED50: 60
Mus musculus [5]
  Ratio LD50/ED50: 60
[6]
  LD50: 500 mg/kg
Mus musculus [7]
  ED50: 25 mg/kg
Mus musculus [8]
  ED50: 22 mg/kg
Mus musculus [1]
  Activity: 72%
Mus musculus [3]
  Activity: 25%
Mus musculus [2]
  inhibition in vivo at 10 mg/kg: 65%

## CC(=O)Oc1ccccc1C(=O)O [ASPIRIN]
Mus musculus [5]
  Ratio LD50/ED50: 10.3

## O=C([O-])Cc1ccccc1Nc1c(Cl)cccc1Cl.[Na+] [DICLOFENAC SODIUM]
Mus musculus [1]
  Activity: 64%
Mus musculus [3]
  Activity: 87.5%
Mus musculus [2]
  inhibition in vivo at 10 mg/kg: 90%
